This experiment concerns the target T1, 5-HT2AR (CHO-5-HT2A cell membranes) (Homo sapiens, UniProt P28223).
T1 construct: gene HTR2A; membranes from CHO-5-HT2A cell line prepared in the authors' laboratory
Nature of the experiment: [3H]ketanserin competition binding, CHO-5-HT2A membranes. As to conditions: […] °C, […] min, orthosteric site.

Counter-ions that a name gives are not always drawn.

T1 sequence (P28223 whole entry): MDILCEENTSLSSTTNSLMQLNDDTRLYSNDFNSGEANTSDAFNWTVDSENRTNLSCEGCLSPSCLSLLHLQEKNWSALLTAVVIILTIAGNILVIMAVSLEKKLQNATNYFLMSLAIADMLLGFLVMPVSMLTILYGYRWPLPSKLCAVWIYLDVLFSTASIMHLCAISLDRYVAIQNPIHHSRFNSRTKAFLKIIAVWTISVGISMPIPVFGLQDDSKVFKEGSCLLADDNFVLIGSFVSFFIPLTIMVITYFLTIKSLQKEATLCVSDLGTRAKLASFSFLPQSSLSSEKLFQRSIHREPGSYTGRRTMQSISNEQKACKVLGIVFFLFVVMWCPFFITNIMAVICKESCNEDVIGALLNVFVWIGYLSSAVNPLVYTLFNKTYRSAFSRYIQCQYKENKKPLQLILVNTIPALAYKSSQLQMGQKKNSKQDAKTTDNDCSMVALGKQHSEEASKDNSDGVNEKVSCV

In the case of `NCCc1c[nH]c2ccc(-c3ccc4c(c3)OCCO4)cc12` [OTV1, 2-[5-(2,3-dihydro-1,4-benzodioxin-6-yl)-1H-indol-3-yl]ethan-1-amine Hydrochloride], the pKi entry is “Ligand binding affinities (pKi) are indicated for Nitro-I, Met-I, OTV1 and OTV2”.
